Experimental data taken from patent publication US9656991B2, “Inhibitors of glutaminyl cyclase” (PROBIODRUG AG, priority 2007, dated 2017).

Target: glutaminyl cyclase (QC) (Homo sapiens (Human), UniProt Q16769)
Conditions: QC inhibition, 30° C.
Procedure: All measurements were performed with a BioAssay Reader HTS-7000Plus for microplates (Perkin Elmer) at 30° C. QC activity was evaluated fluorometrically using H-Gln-βNA. The samples consisted of 0.2 mM fluorogenic substrate, 0.25 U pyroglutamyl aminopeptidase (Unizyme, Hørsholm, Denmark) in 0.2 M Tris/HCl, pH 8.0 containing 20 mM EDTA and an appropriately diluted aliquot of QC in a final volume of 250 μl. Excitation/emission wavelengths were 320/410 nm. The assay reactions were initiated by addition of glutaminyl cyclase. QC activity was determined from a standard curve of β-naphthylamine under assay conditions. One unit is defined as the amount of QC catalyzing the formation of 1 μmol pGlu-βNA from H-Gln-βNA per minute under the described conditions.
In a second fluorometric assay, QC was activity determined using H-Gln-AMC as substrate. Reactions were carried out at 30° C. utilizing the NOVOStar reader for microplates (BMG labtechnologies). The samples consisted of varying concentrations of the fluorogenic substrate, 0.1 U pyroglutamyl aminopeptidase (Qiagen) in 0.05 M Tris/HCl, pH 8.0 containing 5 mM EDTA and an appropriately diluted aliquot of QC in a final volume of 250 μl. Excitation/emission wavelengths were 380/460 nm. The assay reactions were initiated by addition of glutaminyl cyclase. […] The kinetic data were evaluated using GraFit software.
Samples consisted of the respective QC substrate, 0.3 mM NADH, 14 mM α-Ketoglutaric acid and 30 U/ml glutamate dehydrogenase in a final volume of 250 μl. […] All samples were measured at 30° C., using either the [sequence]luor Plus or the Sunrise (both from TECAN) reader for microplates. Kinetic data was evaluated using GraFit software.
For inhibitor testing, the sample composition was the same as described above, except of the putative inhibitory compound added. For a rapid test of QC-inhibition, samples contained 4 mM of the respective inhibitor and a substrate concentration at 1 KM. For detailed investigations of the inhibition and determination of Ki-values, influence of the inhibitor on the auxiliary enzymes was investigated first. […] The inhibitory constant was evaluated by fitting the set of progress curves to the general equation for competitive inhibition using GraFit software.

Chain of glutaminyl cyclase (QC) (Q16769 29-361): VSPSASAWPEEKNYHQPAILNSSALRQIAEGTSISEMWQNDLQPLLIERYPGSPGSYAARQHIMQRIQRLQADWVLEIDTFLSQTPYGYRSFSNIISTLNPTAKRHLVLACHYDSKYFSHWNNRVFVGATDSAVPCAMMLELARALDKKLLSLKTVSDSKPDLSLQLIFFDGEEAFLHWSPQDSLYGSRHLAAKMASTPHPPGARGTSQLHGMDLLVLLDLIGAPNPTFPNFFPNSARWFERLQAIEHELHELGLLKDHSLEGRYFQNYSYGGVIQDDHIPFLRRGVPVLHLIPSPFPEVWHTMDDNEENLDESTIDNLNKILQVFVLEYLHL

| IC50 [µM] | SMILES |
| --- | --- |
| 258 | S=C(Nc1ccc2[nH]cnc2c1)N1CCCC1 [Example 67, N-(1H-benzo[d]imidazol-5-yl)pyrrolidine-1-carbothioamide] |
| 323 | Fc1ccc(N2CCN(C(=S)Nc3ccc4[nH]cnc4c3)CC2)cc1 [Example 70, N-(1H-benzo[d]imidazol-5-yl)-4-(4-fluorophenyl)piperazine-1-carbo-thioamide] |
| 404 | CN(Cc1ccc(F)cc1)C(=S)Nc1ccc2[nH]cnc2c1 [Example 65, 1-(4-fluorobenzyl)-3-(1H-benzo[d]imidazol-5-yl)-1-methylthiourea] |
| 172 | S=C(Nc1ccc2[nH]cnc2c1)N1CCCCC1 [Example 69, N-(1H-benzo[d]imidazol-5-yl)piperidine-1-carbothioamide] |
| 128 | Fc1ccc(C2CCCN2C(=S)Nc2ccc3[nH]cnc3c2)cc1 (stereo not drawn) [Example 66, N-(1H-benzo[d]imidazol-5-yl)-2-(4-fluorophenyl)pyrrolidine-1-carbo-thioamide] |
| 169 | S=C(Nc1ccc2[nH]cnc2c1)N1CCOCC1 [Example 68, N-(1H-benzo[d]imidazol-5-yl)morpholine-4-carbothioamide] |
